The text below walks through data of US20120251495A1, “PTERIN BASED THERAPIES FOR INFLAMMATORY CONDITIONS” (priority 2008, published 2012).

The test system of experiment [1] is indoleamine 2,3-dioxygenase (IDO). The experiment is described as follows: Plasma tryptophan and kynurenine by HPLC (IDO activity), 1st experiment. The experiment is classed as in vivo, athymic nude (nu/nu) mice. As to conditions: for Kynurenine / Tryptophan / Kyn/Trp: plasma; for Kynurenine / Tryptophan: HPLC; for Kyn/Trp: estimate of IDO activity. How it is done:
(§1) Cytokine levels in EDTA plasma from the mice in the 1st experiment were determined by ELISA assay at Alta Analytical Laboratories (San Diego, Calif.) using a LINCOplex Kit (Linco Research). Tryptophan (Trp) and kynurenine (Kyn) concentrations were measured from EDTA plasma samples by high pressure liquid chromatography (HPLC) using 3-nitro-L-tyrosine as the internal standard (Widner et al., 1997). To estimate IDO activity, the kynurenine to tryptophan ratio (Kyn/Trp) was calculated and expressed as μmol kynurenine/mmol tryptophan (Wirleitner, 2003). The values from five mice in the 1st experiment are not included in the summary statistics given in Table 1 for the following reasons. One mouse from each of the four treatment groups was used to test the effects of mega dosing, i.e., with (1:4 mol:mol) calcium pterin at 100 mg/kg/day after Day 60 of treatment, and are excluded. Also excluded was one mouse from the (1:4 mol:mol) calcium pterin (7 mg/kg/day) group which expired suddenly a few days before blood was collected. Cytokine measurements <3.2 pg/ml are reported as n.d. (not detectable) because the standard curves used in the ELISA assays were not calibrated below that level.

The test system of the next experiment is plasma cytokines. The experiment is described as follows: Plasma cytokine levels by ELISA (LINCOplex), 1st experiment. Type of experiment: in vivo, athymic nude (nu/nu) mice. The following applies: for IL-10: limit of detection 24.6. On the procedure:
as §1
Cytokine levels in EDTA plasma from the mice in the 1st experiment were determined by ELISA assay at Alta Analytical Laboratories (San Diego, Calif.) using a LINCOplex Kit (Linco Research).
Cytokine levels in EDTA plasma from the mice in the 2nd experiment were measured at the UCSD Core Laboratory (San Diego, Calif.) using a multiplex assay kit for IL-1β, IL-2, IL-4, IL-5, IL-10, IL-12, IFN-γ, TNF-α and single ELISA kits for IL-6 and TGF-β1 by R&D Systems. EDTA plasma samples from two of the three ungavaged controls were lost due to handling error. For both the 1st and 2nd experiments, those measured cytokine values falling below the limits of detection were set to the higher assay limit for the purposes of the subsequent statistical analyses, and recorded as n.d. (not detectable) in Tables 1 through 3.

Experiment [2] has as its system MDA-MB-231 xenograph tumors. The experiment is described as follows: Combined analysis of DCP + control mice: Day 42,43 relative tumor volume and DCP/APCP. The experiment is classed as in vivo, nude mice. On the procedure:
Standard ANOVA models for group effects, curve fitting, and stepwise regression analyses were carried out using SPSS Graduate Pack 15.0 for Windows (2006), with p<0.05 used to determine significance.
Table 7 gives the plasma cytokine and relative tumor volume Spearman rank order correlations for the 12 DCP+ control mice (Control [n=3; from 1st experiment]; 23 mg/(kg d) DCP [n=5; from 2nd experiment]; and 69 mg/(kg d) DCP [n=4; from 2nd experiment]).
To further determine significant causal and correlational linkages among DCP dosage, plasma cytokine changes, and relative tumor volume, the following curve fitting analyses were carried out with the 12 DCP+ control mice. First, plotting DCP versus Day 42,43 Relative Tumor Volume yielded a significant quadratic relationship (FIG. 11). Second, curve fitting each cytokine versus Day 42,43 Relative Tumor Volume found no significant linear relationship and only one significant quadratic relationship, i.e., with IL-12 (p=0.004; FIG. 12). Third, plotting DCP versus IL-12 yielded a weakly significant quadratic relationship (p=0.048; FIG. 13).
Substantially more significant analogous plots were generated by first carrying out the Table 8 stepwise regression analysis which derived the DCP antitumor plasma cytokine pattern (DCP/APCP), shown to be a more significant cytokine composite measure than IL-12 taken alone. The Table 8 stepwise regression analysis of the cytokine data from the 12 DCP+ control mice allowed for the calculation of DCP/APCP scores for each mouse. These DCP/APCP scores are plotted versus DCP dosage in […], which illustrates the significant quadratic dose-response relationships of DCP versus the derived plasma DCP/APCP composite measure. From this figure the estimated optimum dosage of DCP for maximum tumor growth inhibition is 42 mg/(kg day), while the estimated optimum dosage for maximum DCP/APCP induction is 44 mg/(kg day).

Another experiment concerns hepatitis B virus (HBV). The experiment can be described thus: Liver HBV DNA by quantitative PCR in HBV transgenic mice. Type of experiment: in vivo. The following applies: female HBV mice; 23.0 mg/(kg day), per os 14 days.
The next experiment deals with IDO. The experiment is described as follows: Serum tryptophan and kynurenine in HBV transgenic mice. Type of experiment: in vivo. How it is done: Experimental design. DCP was administered per os, once daily for 14 days to randomly assigned HBV transgenic mice at 23, 7.3, and 2.3 mg/(kg d). ADV was used as a positive control at 10 mg/(kg d) using the same treatment schedule and vehicle (0.4% CMC). On day 14, mice were euthanized to collect serum and liver samples to perform liver HBV DNA, liver core and serum HBe assays, serum cytokine/chemokine profiles, and IDO metabolite assays.
Tryptophan and kynurenine measurements. Tryptophan (Trp) and kynurenine (Kyn) measurements were carried out as previously described (Widner B, Werner E R, Schennach H, Wachter H & Fuchs D. Simultaneous measurement of serum tryptophan and kynurenine by HPLC. Clin Chem 1997; 43:2424-2426). Kyn/Trp ratios were calculated for each mouse as an estimate of IDO activity.

The mark [3] stands for this setting: Table 4, 7 mg/kg/d, limit of detection 3.2.
The mark [4] stands for this setting: Table 4, 21 mg/kg/d, limit of detection 3.2.
The mark [5] stands for this setting: HBV mice generally, 2.3-23.0 mg/(kg day).

As to (1:4 mol:mol) calcium pterin [CaPterin], the figures for the Kynurenine in experiment [1] (7 mg/kg/day) and in experiment [1] (21 mg/kg/day) were 1.2 ± 0.2 µM and 1.8 ± 0.3 µM, respectively. Besides, the Tryptophan in experiment [1] (7 mg/kg/day) turned out to be 87.9 ± 14.6 µM; in experiment [1] (21 mg/kg/day), 106.5 ± 7.8 µM. Besides, the Kyn/Trp was 14.1 ± 0.2 μmol/mmol in experiment [1] (7 mg/kg/day) and 17.5 ± 3.8 μmol/mmol in experiment [1] (21 mg/kg/day). The “plasma kynurenine response to dosage (ACIP model)” value in experiment [1] (stepwise regression) was “increase”. The IL10 in the experiment with plasma cytokines (Table 1, 7 mg/kg/day, plasma) was found to be 41.9 ± 22.7 pg/mL; with plasma cytokines (Table 1, 21 mg/kg/day, plasma), 50.8 ± 32.3 pg/mL. The IL-6 was 114.7 ± 43.2 pg/mL with plasma cytokines (Table 1, 7 mg/kg/day, plasma); 121.7 ± 78.1 pg/mL in the experiment with plasma cytokines (Table 1, 21 mg/kg/day, plasma); 114.7 ± 43.2 pg/mL in the experiment on plasma cytokines (Table 4, 7 mg/kg/d, plasma at sacrifice, limit of detection 3.9); 121.7 ± 78.1 pg/mL in the experiment on plasma cytokines (Table 4, 21 mg/kg/d, plasma at sacrifice, limit of detection 3.9). The IL-12 in the experiment with plasma cytokines (Table 1, 7 mg/kg/day, plasma) came out at 7.7 ± 4.4 pg/mL; in the experiment with plasma cytokines (Table 1, 21 mg/kg/day, plasma) it was 243.8 ± 237.8 pg/mL; in the experiment with plasma cytokines (setting [3]), 7.7 ± 4.4 pg/mL; in the experiment on plasma cytokines (setting [4]), 243.8 ± 237.8 pg/mL. In addition, the TNF-α in the experiment with plasma cytokines (Table 1, 7 mg/kg/day, plasma) stood at 9.8 ± 1.5 pg/mL; with plasma cytokines (Table 1, 21 mg/kg/day, plasma) it was 8.5 ± 1.6 pg/mL; in the experiment on plasma cytokines (setting [3]), 9.8 ± 1.5 pg/mL; in the experiment with plasma cytokines (setting [4]) it was 8.5 ± 1.6 pg/mL. Besides, the IL-1b was found to be 5.2 ± 2.0 pg/mL in the experiment with plasma cytokines (Table 1, 7 mg/kg/day, plasma at sacrifice, n.d. = <3.2 pg/ml) and 3.4 ± 0.2 pg/mL in the experiment with plasma cytokines (Table 1, 21 mg/kg/day, plasma at sacrifice, n.d. = <3.2 pg/ml). Besides, the IFN-γ in the experiment on plasma cytokines (Table 1, 7 mg/kg/day, plasma, n.d. = <3.2 pg/ml) is 4.7 ± 0.6 pg/mL; in the experiment with plasma cytokines (setting [3]), 4.7 ± .8 pg/mL. Also, the IL-1β in the experiment on plasma cytokines (Table 4, 7 mg/kg/d, limit of detection 4.1) worked out at 5.8 ± 1.7 pg/mL. The IL-10 worked out at 49.0 ± 17.0 pg/mL in the experiment with plasma cytokines (Table 4, 7 mg/kg/d) and 61.5 ± 27.3 pg/mL with plasma cytokines (Table 4, 21 mg/kg/d). Besides, the “plasma IFN-γ response to dosage (ACIP model)” value in the experiment with plasma cytokines (stepwise regression) was “decrease”. Further, the “plasma IL-6 response to dosage (ACIP model)” value with plasma cytokines (stepwise regression) was “decrease”. Moreover, in the experiment on plasma cytokines (stepwise regression), the “plasma IL-10 response to dosage (ACIP model)” value is given as “increase”.
Regarding `Nc1nc([O-])c2nccnc2n1.Nc1nc([O-])c2nccnc2n1.[Ca+2]` [DCP, dipterinyl calcium pentahydrate], the “tumor growth inhibition relative to controls (FIG. 9)” value in experiment [2] (23 mg/(kg day), Day 42,43 relative tumor volume, combined data) was “significant tumor growth inhibition”. Also, in experiment [2] (DCP/APCP), the “plasma IL-4 correlated to antitumor response” value is “increased”, the “plasma IL-6 correlated to antitumor response” value is listed as “decreased” and the “plasma IL-12 correlated to antitumor response” value is “increased”. Also, the “dose range in which antitumor response and cytokine pattern are optimized” value in experiment [2] (nude mice with MDA-MB-231 xenograph tumors) is listed as 40-46 mg/(kg day). For the same compound, in experiment [2] (quadratic fit, FIG. 11), the “estimated optimum dosage for maximum DCP/APCP induction” value was 44 mg/(kg day) and the “estimated optimum dosage for maximum tumor growth inhibition” value is listed as 42 mg/(kg day). Moreover, the “Log HBV DNA (PCR) versus controls” value in the experiment on hepatitis B virus (HBV) is reported as “significant treatment decreases”. Besides, in the experiment with IDO (setting [5]), the “serum Kyn” value is given as “did not affect” and the “serum Kyn/Trp” value is given as “did not affect”. Further, the “serum tryptophan (Trp) versus controls” value with IDO (male HBV mice, 23.0 mg/(kg day)) is “significantly increased”.
